Source: the supplement of paper PMC9436093

Experiments:
Test in all cases: cell viability relative to DMSO (100%) and bortezomib (0%) controls; higher = more viable / less sensitive
Conditions in all cases: 72 h
[1] = system: HAP1 HDAC1 KO + HDAC1 H141A transgene
Method: (§1)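 HAP1 cells (wildtype, HDAC1/2/3 catalytically inactive H>A mutant lines in wildtype or knockout background, HDAC3 KO, or wildtype pre-treated 6 h with 1 uM MS-275 or JQ12) were seeded onto compound-containing 384-well plates with an 8-point 1:3 dose series. ATP was read by CellTiter-Glo after 72 h. Viability is normalised to plate DMSO wells (100%) and bortezomib positive-control wells (0%) after outlier removal. Duplicate screen.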

[2] = system: HAP1 HDAC2 KO + HDAC2 H142A transgene
Method: as §1

[3] = system: HAP1 HDAC3 KO + HDAC3 H135A transgene
Method: as §1

HAP1 HDAC3 KO = system: HAP1 HDAC3 KO
Method: as §1

[4] = system: HAP1 WT + HDAC1 H141A transgene
Method: as §1

[5] = system: HAP1 WT + HDAC2 H142A transgene
Method: as §1

[6] = system: HAP1 WT + HDAC3 H135A transgene
Method: as §1

[7] = system: HAP1 wildtype + JQ12 1 uM (6 h pretreatment)
Method: as §1

[8] = system: HAP1 wildtype + MS-275 1 uM (6 h pretreatment)
Method: as §1

HAP1 wildtype = system: HAP1 wildtype
Method: as §1

COc1cc(Nc2ncc3c(n2)-c2ccc(Cl)cc2C(c2c(F)cccc2OC)=NC3)ccc1C(=O)O [Alisertib]
cell viability [%]
Conditions | HAP1 HDAC3 KO | HAP1 wildtype | [1] | [2] | [3] | [4] | [5] | [6] | [7] | [8]
0.00617 µM | 94.9 | 103 | 95.2 | 103 | 103 | 101 | 86.2 | 92.9 | 79.6 | 107
0.0185 µM | 131 | 136 | 122 | 92.1 | 121 | 95.7 | 115 | 103 | 100 | 128
0.0556 µM | 117 | 100 | 109 | 103 | 112 | 95.2 | 99.5 | 123 | 95.3 | 108
0.166666667 µM | 70 | 110 | 52.1 | 31.8 | 70.2 | 71.2 | 62.6 | 147 | 34.2 | 43.2
0.5 µM | 111 | 96.5 | 53.3 | 51 | 79.4 | 37.1 | 49.8 | 105 | 51.9 | 72.44
1.5 µM | 114 | 83.2 | 38.4 | 54.5 | 82.3 | 15.1 | 21.9 | 101 | 51.7 | 61.6
4.5 µM | 103 | 74.2 | 33.1 | 36.2 | 71.6 | 22.1 | 17.5 | 90.6 | 54.4 | 53.2
13.5 µM | 116 | 73.4 | 19.6 | 21.8 | 89 | 2.6 | 12.7 | 108 | 52 | 46.8

CNC(=O)c1ccccc1Sc1ccc2c(/C=C/c3ccccn3)n[nH]c2c1 [Axitinib]
cell viability [%]
Conditions | HAP1 HDAC3 KO | HAP1 wildtype | [1] | [2] | [3] | [4] | [5] | [6] | [7] | [8]
0.0123 µM | 120 | 119 | 112 | 113 | 121 | 105 | 130 | 114 | 106 | 114
0.037 µM | 99.1 | 95.8 | 94.3 | 94 | 87 | 90.6 | 82.1 | 90.2 | 76.9 | 92.3
0.111111111 µM | 87.1 | 121 | 93 | 86.6 | 94 | 93.5 | 88.7 | 96.9 | 82.1 | 93.5
0.333333333 µM | 102 | 102 | 84.5 | 107 | 101 | 94.8 | 101 | 121 | 109 | 101
1 µM | 172 | 115 | 155 | 137 | 129 | 121 | 140 | 147 | 102 | 113
3 µM | 48.9 | 72 | 54 | 23.4 | 34.8 | 21.8 | 46.4 | 88.11 | 57.83 | 67.8
9 µM | 79.4 | 62 | 26.6 | -0.112 | 36.3 | 5.34 | 16.3 | 101 | 48.6 | 52.5
27 µM | 50.5 | 92.3 | 36 | 27.5 | 50.1 | 25.9 | 46.8 | 102 | 72.2 | 65.8
